Measurements taken from ChEMBL document CHEMBL4402524, “Identification of Novel Resorcinol Amide Derivatives as Potent and Specific Pyruvate Dehydrogenase Kinase (PDHK) Inhibitors” (J Med Chem, 2019).
pIC50: −log10 of the molar value.

Experiments:
[1] = target: T1, [Pyruvate dehydrogenase (acetyl-transferring)] kinase isozyme 2, mitochondrial (Homo sapiens, UniProt Q15119); experiment: Inhibition of PDHK2 (unknown origin) by radiometric biochemical kinase assay
[2] = target: T2, [Pyruvate dehydrogenase (acetyl-transferring)] kinase isozyme 4, mitochondrial (Homo sapiens, UniProt Q16654); experiment: Inhibition of PDHK4 (unknown origin) by radiometric biochemical kinase assay
T2 sequence (Q16654 whole entry): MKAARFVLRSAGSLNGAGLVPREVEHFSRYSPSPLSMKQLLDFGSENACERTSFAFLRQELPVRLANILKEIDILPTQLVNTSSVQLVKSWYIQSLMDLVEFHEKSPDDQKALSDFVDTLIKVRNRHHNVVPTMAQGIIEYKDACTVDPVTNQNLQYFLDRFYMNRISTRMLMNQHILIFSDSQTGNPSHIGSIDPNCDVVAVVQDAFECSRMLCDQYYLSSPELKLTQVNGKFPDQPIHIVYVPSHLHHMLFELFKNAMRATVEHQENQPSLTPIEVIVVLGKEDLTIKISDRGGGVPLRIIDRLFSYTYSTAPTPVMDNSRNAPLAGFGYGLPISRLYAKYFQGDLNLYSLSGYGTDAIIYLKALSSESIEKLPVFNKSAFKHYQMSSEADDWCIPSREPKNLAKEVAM

[3] = target: [Pyruvate dehydrogenase (acetyl-transferring)] kinase isozyme 1, mitochondrial (Homo sapiens, UniProt Q15118); experiment: Inhibition of PDHK1 (unknown origin) by radiometric biochemical kinase assay
Sequence of [Pyruvate dehydrogenase (acetyl-transferring)] kinase isozyme 1, mitochondrial (Q15118 whole entry): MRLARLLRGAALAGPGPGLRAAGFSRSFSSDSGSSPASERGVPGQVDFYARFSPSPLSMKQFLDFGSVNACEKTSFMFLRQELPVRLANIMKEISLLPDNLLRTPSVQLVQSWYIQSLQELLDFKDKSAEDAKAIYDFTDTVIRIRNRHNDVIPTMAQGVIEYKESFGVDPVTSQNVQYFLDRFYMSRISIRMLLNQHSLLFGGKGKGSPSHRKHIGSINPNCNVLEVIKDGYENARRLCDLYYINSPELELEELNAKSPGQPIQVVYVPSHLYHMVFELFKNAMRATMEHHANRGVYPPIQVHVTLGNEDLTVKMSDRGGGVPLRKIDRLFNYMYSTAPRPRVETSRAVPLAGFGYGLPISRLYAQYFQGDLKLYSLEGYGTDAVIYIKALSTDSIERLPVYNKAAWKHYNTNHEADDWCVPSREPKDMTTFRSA

[4] = target: [Pyruvate dehydrogenase (acetyl-transferring)] kinase isozyme 3, mitochondrial (Homo sapiens, UniProt Q15120); experiment: Inhibition of PDHK3 (unknown origin) by radiometric biochemical kinase assay
Sequence of [Pyruvate dehydrogenase (acetyl-transferring)] kinase isozyme 3, mitochondrial (Q15120 whole entry): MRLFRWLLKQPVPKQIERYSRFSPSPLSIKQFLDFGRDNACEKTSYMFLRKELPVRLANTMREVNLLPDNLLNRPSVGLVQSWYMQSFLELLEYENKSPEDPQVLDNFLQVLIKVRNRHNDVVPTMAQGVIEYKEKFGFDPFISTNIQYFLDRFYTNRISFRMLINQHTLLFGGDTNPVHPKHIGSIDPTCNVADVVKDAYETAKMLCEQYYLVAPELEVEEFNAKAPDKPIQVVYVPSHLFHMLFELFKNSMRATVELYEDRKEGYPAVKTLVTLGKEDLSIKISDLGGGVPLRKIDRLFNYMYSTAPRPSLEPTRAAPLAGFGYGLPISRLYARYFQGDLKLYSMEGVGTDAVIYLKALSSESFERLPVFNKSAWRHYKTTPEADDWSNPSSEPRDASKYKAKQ

Heat shock protein HSP90 = Heat shock protein HSP90 (Homo sapiens, UniProt P07900+P08238); experiment: Inhibition of HSP90 (unknown origin); assay type: protein assay
NCI-H1299 [5] = experiment: Antiproliferative activity against p53 deficient human H1299 cells incubated for 72 hrs by CellTiter-Glo assay; assay type: functional; settings: NCI-H1299, 72 h
DU-145 [6] = experiment: Antiproliferative activity against p53 deficient human DU145 cells incubated for 72 hrs by CellTiter-Glo assay; assay type: functional; settings: DU-145, 72 h
[7] = target: T1, [Pyruvate dehydrogenase (acetyl-transferring)] kinase isozyme 2, mitochondrial; experiment: Inhibition of PDHK2 (unknown origin) assessed as reduction in NAD measured for 30 mins
[8] = target: T2, [Pyruvate dehydrogenase (acetyl-transferring)] kinase isozyme 4, mitochondrial; experiment: Inhibition of PDHK4 (unknown origin) assessed as reduction in NAD measured for 30 mins
Cytochrome P450 1A2 = target: T3, Cytochrome P450 1A2 (Homo sapiens, UniProt P05177); experiment: Inhibition of CYP1A2 (unknown origin); assay type: ADME
T3 sequence (P05177 whole entry): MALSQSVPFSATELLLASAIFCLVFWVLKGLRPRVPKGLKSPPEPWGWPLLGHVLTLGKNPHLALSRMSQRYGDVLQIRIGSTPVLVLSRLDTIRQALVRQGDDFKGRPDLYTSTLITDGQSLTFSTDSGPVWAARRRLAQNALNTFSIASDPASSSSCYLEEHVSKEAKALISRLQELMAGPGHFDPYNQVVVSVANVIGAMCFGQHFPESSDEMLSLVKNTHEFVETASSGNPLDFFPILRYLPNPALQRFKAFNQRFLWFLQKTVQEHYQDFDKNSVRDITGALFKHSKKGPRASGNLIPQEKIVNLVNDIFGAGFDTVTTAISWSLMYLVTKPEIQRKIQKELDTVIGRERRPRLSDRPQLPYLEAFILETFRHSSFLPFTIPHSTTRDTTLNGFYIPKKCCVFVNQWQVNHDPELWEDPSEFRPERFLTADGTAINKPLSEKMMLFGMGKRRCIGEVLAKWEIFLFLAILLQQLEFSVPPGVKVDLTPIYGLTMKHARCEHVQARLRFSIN

Cytochrome P450 2C9 = Cytochrome P450 2C9 (Homo sapiens, UniProt P11712); experiment: Inhibition of CYP2C9 (unknown origin); assay type: ADME
Sequence of Cytochrome P450 2C9 (P11712 whole entry): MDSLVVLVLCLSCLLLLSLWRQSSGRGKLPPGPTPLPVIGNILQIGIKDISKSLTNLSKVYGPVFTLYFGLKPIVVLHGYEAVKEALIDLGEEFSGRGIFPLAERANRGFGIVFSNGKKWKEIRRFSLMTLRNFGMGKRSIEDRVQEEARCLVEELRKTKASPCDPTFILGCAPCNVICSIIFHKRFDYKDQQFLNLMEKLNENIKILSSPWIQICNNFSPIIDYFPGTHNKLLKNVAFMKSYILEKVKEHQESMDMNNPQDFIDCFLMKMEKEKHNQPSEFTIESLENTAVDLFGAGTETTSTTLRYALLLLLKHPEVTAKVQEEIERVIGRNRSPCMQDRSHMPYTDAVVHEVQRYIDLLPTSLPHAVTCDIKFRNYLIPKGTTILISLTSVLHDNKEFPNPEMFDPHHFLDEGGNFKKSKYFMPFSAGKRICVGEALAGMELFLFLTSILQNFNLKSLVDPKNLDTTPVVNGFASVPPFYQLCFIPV

Cytochrome P450 2C19 = Cytochrome P450 2C19 (Homo sapiens, UniProt P33261); experiment: Inhibition of CYP2C19 (unknown origin); assay type: ADME
Sequence of Cytochrome P450 2C19 (P33261 whole entry): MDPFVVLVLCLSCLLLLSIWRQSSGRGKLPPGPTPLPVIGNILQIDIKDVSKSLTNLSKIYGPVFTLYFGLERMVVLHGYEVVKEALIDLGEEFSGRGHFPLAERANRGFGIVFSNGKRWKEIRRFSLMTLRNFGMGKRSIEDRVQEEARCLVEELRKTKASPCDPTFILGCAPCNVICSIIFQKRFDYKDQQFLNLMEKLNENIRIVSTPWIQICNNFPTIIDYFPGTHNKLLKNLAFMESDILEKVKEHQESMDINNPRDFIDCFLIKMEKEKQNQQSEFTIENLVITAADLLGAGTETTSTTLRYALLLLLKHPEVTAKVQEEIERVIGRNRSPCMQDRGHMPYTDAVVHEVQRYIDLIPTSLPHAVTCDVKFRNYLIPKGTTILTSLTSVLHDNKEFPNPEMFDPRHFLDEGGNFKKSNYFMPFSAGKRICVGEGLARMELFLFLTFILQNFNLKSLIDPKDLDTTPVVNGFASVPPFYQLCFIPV

Cytochrome P450 2D6 = Cytochrome P450 2D6 (Homo sapiens, UniProt P10635); experiment: Inhibition of CYP2D6 (unknown origin); assay type: ADME
Sequence of Cytochrome P450 2D6 (P10635 whole entry): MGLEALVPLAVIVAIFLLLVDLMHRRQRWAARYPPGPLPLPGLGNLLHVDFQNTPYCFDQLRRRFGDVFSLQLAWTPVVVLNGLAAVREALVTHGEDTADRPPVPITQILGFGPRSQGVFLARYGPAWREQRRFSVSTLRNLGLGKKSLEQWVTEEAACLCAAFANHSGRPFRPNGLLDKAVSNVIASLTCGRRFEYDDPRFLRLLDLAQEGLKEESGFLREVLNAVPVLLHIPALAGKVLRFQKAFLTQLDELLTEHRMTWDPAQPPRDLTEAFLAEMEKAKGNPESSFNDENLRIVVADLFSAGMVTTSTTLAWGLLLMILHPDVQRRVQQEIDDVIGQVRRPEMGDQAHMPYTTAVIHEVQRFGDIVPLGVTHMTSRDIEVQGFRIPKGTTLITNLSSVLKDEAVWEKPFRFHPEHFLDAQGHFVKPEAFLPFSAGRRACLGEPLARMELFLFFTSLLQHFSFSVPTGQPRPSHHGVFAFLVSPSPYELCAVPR

Cytochrome P450 3A4 = Cytochrome P450 3A4 (Homo sapiens, UniProt P08684); experiment: Inhibition of CYP3A4 (unknown origin); assay type: ADME
Sequence of Cytochrome P450 3A4 (P08684 whole entry): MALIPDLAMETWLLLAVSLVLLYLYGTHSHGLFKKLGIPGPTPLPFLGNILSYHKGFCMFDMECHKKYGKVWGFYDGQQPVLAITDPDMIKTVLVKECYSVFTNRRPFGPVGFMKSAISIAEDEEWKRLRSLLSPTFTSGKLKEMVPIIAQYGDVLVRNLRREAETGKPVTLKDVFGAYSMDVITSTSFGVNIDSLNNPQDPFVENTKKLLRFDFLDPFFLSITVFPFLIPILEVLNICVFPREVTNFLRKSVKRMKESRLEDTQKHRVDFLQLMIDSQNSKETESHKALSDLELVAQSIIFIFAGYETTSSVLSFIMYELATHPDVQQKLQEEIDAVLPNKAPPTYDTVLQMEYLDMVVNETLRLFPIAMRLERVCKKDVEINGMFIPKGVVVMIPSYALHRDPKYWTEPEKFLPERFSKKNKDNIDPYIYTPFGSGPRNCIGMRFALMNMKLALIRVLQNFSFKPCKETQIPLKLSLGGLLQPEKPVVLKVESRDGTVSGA

NCI-H1299 [9] = experiment: Synergistic antiproliferative activity against human H1299 cells at 20 uM incubated for 72 hrs in presence of satra-platin by CellTiter-Glo assay relative to control; assay type: functional; settings: NCI-H1299, 72 h
NCI-H1299 [10] = experiment: Antiproliferative activity against PDHK1/2 double knockdown human H1299 cells transfected with PDHK1/2 siRNA at 10 uM incubated for 48 hrs by CellTiter-Glo assay relative to control; assay type: functional
NCI-H1299 [11] = experiment: Antiproliferative activity against human H1299 cells transfected with control siRNA at 10 uM incubated for 48 hrs in by CellTiter-Glo assay relative to control; assay type: functional
NCI-H1299 [12] = experiment: Induction of apoptosis in human H1299 cells assessed as increase in apoptotic cells at 30 uM incubated for 48 hrs by FITC Annexin-V and PI staining based flow cytometric analysis relative to control; assay type: functional
DU-145 [13] = experiment: Induction of apoptosis in human DU145 cells assessed as increase in apoptotic cells at 30 uM incubated for 48 hrs by FITC Annexin-V and PI staining based flow cytometric analysis relative to control; assay type: functional
NCI-H1299 [14] = experiment: Inhibition of anchorage-independent colony formation in human H1299 cells at 20 uM incubated for 14 days by p iodonitrotetrazolium violet staining based method relative to control; assay type: functional; settings: NCI-H1299, 336 h
NCI-H1299 [15] = experiment: Antiproliferative activity against p53 deficient human H1299 cells at 20 uM incubated for 72 hrs by CellTiter-Glo assay relative to control; assay type: functional
NCI-H1299 [16] = experiment: Synergistic induction of apoptosis in human H1299 cells assessed as increase in apoptotic cells at 10 uM incubated for 48 hrs in presence of satra-platin by FITC Annexin-V and PI staining based flow cytometric analysis relative to control; assay type: functional

Row | Structure (SMILES) | pIC50 [1] | pIC50 [2] | pIC50 [3] | pIC50 [4] | GI50 (NCI-H1299 [5]) [nM] | GI50 (DU-145 [6]) [nM] | further results
1 | Cc1ccc(CN(C(=O)c2ccc(O)cc2O)c2ccc(C(=O)N(C)C)cc2)o1 | 6.60 | 7.28 | 7.70 | 6.59 | – | – | –
2 | CN(C)C(=O)c1ccc(N(Cc2ccc(O)cc2)C(=O)c2ccc(O)cc2O)cc1 | 6.82 | 7.47 | 6.95 | 6.87 | 4900 | 3500 | IC50 (Heat shock protein HSP90): > 10000 nM; pIC50 [7]: 5.84; pIC50 [8]: 5.88; pIC50 (Cytochrome P450 1A2): < 4.70; pIC50 (Cytochrome P450 2C9): 4.87; pIC50 (Cytochrome P450 2C19): < 4.70; pIC50 (Cytochrome P450 2D6): < 4.70; pIC50 (Cytochrome P450 3A4): 5.19
3 | CC(=O)Nc1ccc(CN(C(=O)c2ccc(O)cc2O)c2ccc(C(=O)NC3CC3)cc2)cc1 | 5.71 | 4.83 | – | – | – | – | –
4 | CN(C)C(=O)c1ccc(N(CC2CCCCC2)C(=O)c2ccc(O)cc2O)cc1 | 6.74 | 6.11 | 6.85 | 6.07 | – | – | –
5 | CC(=O)Nc1ccc(CN(C(=O)c2ccc(O)cc2O)c2ccc(C(=O)N3CCCC3)cc2)cc1 | 5.78 | 5.74 | – | – | – | – | –
6 | CN(C)C(=O)c1ccc(N(Cc2cc(Br)cs2)C(=O)c2ccc(O)cc2O)cc1 | 8.10 | 8.30 | 8.05 | 7.10 | 51600 | 41900 | IC50 (Heat shock protein HSP90): 5790 nM; pIC50 (Cytochrome P450 1A2): < 4.70; pIC50 (Cytochrome P450 2C9): 4.74; pIC50 (Cytochrome P450 2C19): 5.11; pIC50 (Cytochrome P450 2D6): < 4.70; pIC50 (Cytochrome P450 3A4): > 6.00
7 | CC(=O)Nc1ccc(CN(C(=O)c2ccc(O)cc2O)c2ccc(C(=O)N3CCCCC3)cc2)cc1 | 5.79 | 5.70 | – | – | – | – | –
8 | CN(C)C(=O)c1ccc(N(Cc2ccc(Br)s2)C(=O)c2ccc(O)cc2O)cc1 | 7.74 | 8.10 | 7.38 | 7.05 | 49800 | 42200 | –
9 | CN(C)C(=O)c1ccc(N(Cc2ccc3ccccc3c2)C(=O)c2ccc(O)cc2O)cc1 | 6.43 | 6.63 | – | – | – | – | –
10 | CN(C)C(=O)c1ccc(N(Cc2ccc(C#N)s2)C(=O)c2ccc(O)cc2O)cc1 | 7.02 | 7.05 | 7.24 | 7.01 | 107000 | 59800 | –
11 | CN(C)C(=O)c1ccc(N(Cc2ncc(Br)s2)C(=O)c2ccc(O)cc2O)cc1 | 7.19 | 7.70 | 7.70 | 7.19 | 60200 | 40800 | IC50 (Heat shock protein HSP90): 6000 nM
12 | CN(C)C(=O)c1ccc(N(Cc2ccc(F)cc2)C(=O)c2ccc(O)cc2)cc1 | 5.69 | 6.41 | – | – | – | – | –
13 | CN(C)C(=O)c1ccc(N(Cc2ccc([N+](=O)[O-])cc2)C(=O)c2ccc(O)cc2O)cc1 | 6.96 | 7.00 | – | – | 97100 | 44500 | –
14 | CN(C)C(=O)c1ccc(N(CC(C)(C)C)C(=O)c2ccc(O)cc2O)cc1 | 6.11 | 5.27 | – | – | – | – | –
15 | CNC(=O)c1ccc(N(Cc2ccc(NC(C)=O)cc2)C(=O)c2ccc(O)cc2O)cc1 | 5.07 | 5.11 | – | – | – | – | –
16 | O=C(O)C(Cl)Cl [DICHLOROACETIC ACID] | – | – | – | – | – | – | GI50 (NCI-H1299 [9]): 8500 nM

Row | Structure (SMILES) | pIC50 [1] | pIC50 [2] | pIC50 [3] | pIC50 [4] | GI50 (NCI-H1299 [5]) [nM] | GI50 (DU-145 [6]) [nM] | further results
17 | CN(C)C(=O)c1ccc(N(Cc2ccc(C(F)(F)F)cc2)C(=O)c2ccc(O)cc2O)cc1 | 6.85 | 6.56 | – | – | – | – | –
18 | CN(C)C(=O)c1ccc(N(Cc2ccc(F)cc2)C(=O)c2ccc(O)cc2O)cc1 | 6.95 | 7.28 | 7.17 | 6.85 | 57100 | 69700 | IC50 (Heat shock protein HSP90): 5200 nM
19 | CC(=O)Nc1ccc(CN(C(=O)c2ccc(O)cc2O)c2ccc(C(=O)O)cc2)cc1 | 5.14 | 5.33 | – | – | – | – | –
20 | CC(=O)Nc1ccc(CN(C(=O)c2ccc(O)cc2O)c2ccc(C(=O)N(C)C)cc2)cc1 | 6.30 | 6.51 | – | – | – | – | –
21 | CN(C)C(=O)c1ccc(N(Cc2ccc(I)o2)C(=O)c2ccc(O)cc2O)cc1 | 7.01 | 7.96 | 7.85 | 8.30 | 39200 | 15900 | –
22 | CN(C)C(=O)c1ccc(N(Cc2ccc(Cl)o2)C(=O)c2ccc(O)cc2O)cc1 | 6.71 | 7.09 | 7.62 | 6.74 | 30000 | 29900 | –
23 | Cc1cnc(Cl)nc1-c1ccc(N(Cc2ccc(CNC(=O)C(F)F)cc2)C(=O)c2ccc(O)cc2O)cc1 | – | – | – | – | > 50000 | > 50000 | IC50 (Heat shock protein HSP90): > 10000 nM
24 | CC(=O)Nc1ccc(CN(C(=O)c2ccc(O)cc2O)c2ccc(C(=O)NCCO)cc2)cc1 | 5.00 | 4.91 | – | – | – | – | –
25 | CN(C)C(=O)c1ccc(N(Cc2ccc(Br)o2)C(=O)c2ccc(O)cc2O)cc1 | 8.00 | 7.89 | 7.44 | 7.23 | 13400 | 10200 | IC50 (Heat shock protein HSP90): 830 nM; Activity (NCI-H1299 [10]): 32%; Activity (NCI-H1299 [11]): 50%; pIC50 [7]: 5.68; pIC50 [8]: 6.51; pIC50 (Cytochrome P450 1A2): < 4.70; pIC50 (Cytochrome P450 2C9): < 4.70; pIC50 (Cytochrome P450 2C19): 5.37; pIC50 (Cytochrome P450 2D6): < 4.70; pIC50 (Cytochrome P450 3A4): 5.85; Activity (NCI-H1299 [12]): 24.8%; Activity (DU-145 [13]): 60%; inhibition at 20 µM (NCI-H1299 [14]): 100%; Activity (NCI-H1299 [15]): 70%; GI50 (NCI-H1299 [9]): 5500 nM; Activity (NCI-H1299 [16]): 30 - 34%
26 | CN(C)C(=O)c1ccc(N(Cc2ccco2)C(=O)c2ccc(O)cc2O)cc1 | 6.88 | 7.16 | 7.32 | 7.17 | 7800 | 9000 | IC50 (Heat shock protein HSP90): 770 nM; pIC50 [7]: 5.96; pIC50 [8]: 6.24
27 | CN(C)C(=O)c1ccc(N(Cc2ccc(Cl)cc2)C(=O)c2ccc(O)cc2O)cc1 | 6.90 | 6.77 | – | – | 31500 | 51000 | –
28 | CN(C)C(=O)c1ccc(N(Cc2cnc(Br)s2)C(=O)c2ccc(O)cc2O)cc1 | 6.88 | 7.06 | 7.62 | 7.05 | 32200 | 18900 | –
29 | CN(C)C(=O)c1ccc(N(Cc2ccc(C#N)cc2)C(=O)c2ccc(O)cc2O)cc1 | 6.52 | 6.40 | 6.82 | 6.34 | – | – | –
30 | CN(C)C(=O)c1ccc(N(Cc2ccccc2)C(=O)c2ccc(O)cc2O)cc1 | 6.69 | 7.18 | 6.96 | – | – | – | –
31 | CN(C)C(=O)c1ccc(N(Cc2ccc(F)cc2)C(=O)c2ccccc2O)cc1 | < 5.00 | < 5.00 | – | – | – | – | –
32 | CC(=O)Nc1ccc(CN(C(=O)c2ccc(O)cc2O)c2ccc(C(=O)N3CCOCC3)cc2)cc1 | 5.58 | 5.24 | – | – | – | – | –
